Test results: patent US20120142770A1, “PHARMACEUTICAL COMPOSITIONS OF HDAC INHIBITORS AND CHELATABLE METAL COMPOUNDS, AND METAL-HDAC INHIBITOR CHELATE COMPLEXES” (Merck Sharp & Dohme Corp, priority 2006, published 2012)
≈ marks a conversion by molar mass, not a printed value. Like-named read-outs stand apart in the source and are kept apart here.

Tests used:
[1] = Solubility of raw material (Table 1); assay type: physicochemical
Text: Table 1 summarizes the physical properties of the raw materials in the capsule.

in vivo = conditions: female, CD1 nu/nu, mouse, ip
Protocol: To test whether the maximum tolerated dose (MTD) of vorinostat in mice can be increased with zinc supplementation, Mice (CD1 nu/nu female, 6-8 weeks old, Charles River Laboratories) are administered vehicle, 150 mg/kg (MTD) or 300 mg/kg vorinostat in vehicle (Table 11). Mice are given 0.5, 1, or 5 molar equivalents (relative to vorinostat) of zinc chloride. This corresponds to ZnCl2 doses of 38.5, 77, and 385 mg/kg for the 150 mg/kg vorinostat group.
Body weight and survival are monitored as indications of toxicity. Doses resulting in a group average body weight loss of more than 20% average will be considered non-tolerated. Likewise, doses resulting in the treatment-related death of more than 2 mice per group will be considered non-tolerated.

patients with cancer = conditions: cited from earlier work
all animal species = conditions: cited from earlier work
rats = conditions: rat, in vivo; cited from earlier work
dogs = conditions: dog, in vivo; cited from earlier work
[2] = in vivo; cited from earlier work

Row | SMILES | solubility ([1]; 2% CIP100 aqueous solution, aqueous with cosolvent or surfactant or cyclodextrin, 2% CIP100 aqueous soln., read-out: Solubility in 2% CIP100 aqueous soln.) [mg/mL] | solubility ([1]; 2% SD-20 aqueous solution, aqueous with cosolvent or surfactant or cyclodextrin, 2% SD-20 aqueous soln., read-out: Solubility in 2% SD-20 aqueous soln.) [mg/mL] | solubility ([1]; in water, read-out: Solubility in Water) [mg/mL] | solubility ([1]; organic solvent or mixture, in methanol, read-out: Solubility in Methanol) [mg/mL] | MTD (in vivo) [mg/kg] | Clinical adverse experiences or side effects (patients with cancer) | Preclinical toxicity (all animal species) | Preclinical toxicity (rats) | Preclinical toxicity (dogs) | side effects [2]
1 | O=C(CCCCCCC(=O)Nc1ccccc1)NO [Suberoylanilide hydroxamic acid (SAHA), N-hydroxy-N′-phenyloctanediamide] | 11.3 (≈ 42.8 mM) | 0.085 (≈ 0.322 mM) | < 0.1 | 42 (≈ 159 mM) | 150 | diarrhea, fatigue, nausea, thrombocytopenia, anorexia, dysgeusia, weight decrease, muscle spasms, alopecia, anemia, blood creatinine increase, vomiting, chills | weight loss or inappetence, immune suppression (leucopenia, lymphopenia, thymic atrophy) | thrombocytopenia | gastrointestinal toxicity (mucosal atrophy, acute inflammation, necrosis, multiple lesions), dehydration, electrolyte loss, testicular atrophy | –
2 | CC(=O)N(O)CCCCCNC(=O)CCC(=O)N(O)CCCCCNC(=O)CCC(=O)N(O)CCCCCN [Desferrioxamine] | – | – | – | – | – | – | – | – | – | fatigue, bone marrow atrophy, thymic atrophy and neutropenia
3 | CC(=O)NO [Lithostat, acetohydroxamic acid] | – | – | – | – | – | – | – | – | – | nausea, vomiting, anorexia, fatigue, malaise, reticulocytosis, anemia, thrombocytopenia, leukopenia and headache
